In US6514911B1, “Substituted oxadiazines useful as pesticides” (Uniroyal Chemical Company, Inc., priority 2002, dated 2003):

Legend:
Type in all cases: in vivo
[1] = tested on: barnyardgrass (Echinochloa crus-galli (L.) Beauv.) (BG); assay: Preemergence herbicide test, soil drench, barnyardgrass; conditions: Echinochloa crus-galli, 336 h, 10 lbs/A (11.2 kg/ha) soil drench, two weeks after treatment, vs untreated checks, read-out: Percent Weed Control BG
Summary of the method: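 Compound formulated in acetone with ethoxylated sorbitan monolaurate, diluted to 250 ppm and drenched onto soil surface of seeded pots at 10 pounds/acre (11.2 kg/ha), preemergence. Percent weed control versus untreated checks scored two weeks after treatment.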

[2] = tested on: green foxtail (Setaria virdis (L.) Beauv.) (GF); assay: Preemergence herbicide test, soil drench, green foxtail; conditions: Setaria, 336 h, 10 lbs/A (11.2 kg/ha) soil drench, two weeks after treatment, vs untreated checks, read-out: Percent Weed Control GF
Summary of the method: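 Compound in acetone/water with ethoxylated sorbitan monolaurate emulsifier, applied as 250 ppm soil drench at 10 lb/acre (11.2 kg/ha) to pots sown with green foxtail seed. Percent weed control versus untreated checks rated two weeks after treatment.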

[3] = tested on: green foxtail (Setaria virdis (L.) Beauv.) (GF); assay: Postemergence herbicide test, foliar spray, green foxtail; conditions: 3000 ppm foliar spray to drip point, treated six days after emergence, two weeks after treatment
Experimental: To illustrate the effectiveness of the previously described substituted oxadiazines of this invention as preemergence herbicides, 300 mg of the chemical was dissolved in a composition comprising 10 mL acetone to which 30 mg of tile emulsifying agent, ethoxylated sorbitan monolaurate, was added. The solution was diluted to 100 mL with distilled water. Ten milliliters of this 3000 ppm solution was diluted to 250 ppm with distilled water. The chemical was applied at the rate of 10 pounds/acre (11.2 kg/ha) by drenchings 46 mL of the 250 ppm solution on the surface of soil in 41⁄2 inch (11.25 cm) plastic pots wherein seeds of the following weeds had been planted: green foxtail (Setaria […].) Beauv.) (GF). To illustrate the effectiveness of the described substituted oxadiazines as postemergence herbicides, the 3000 ppm solution described under Example 5 was atomized with a conventional DeVilbissTM sprayer, wetting the foliage to the drip point. The weeds, which were the same species as described in Example 5, were treated six days after emergence. The percent weed control was evaluated two weeks after treatment.

[4] = tested on: velvetleaf (Abutilon theophrasti Medik.) (VL); assay: Postemergence herbicide test, foliar spray, velvetleaf; conditions: 3000 ppm foliar spray to drip point, treated six days after emergence, two weeks after treatment
Experimental: (§1) To illustrate the effectiveness of the previously described substituted oxadiazines of this invention as preemergence herbicides, 300 mg of the chemical was dissolved in a composition comprising 10 mL acetone to which 30 mg of tile emulsifying agent, ethoxylated sorbitan monolaurate, was added. The solution was diluted to 100 mL with distilled water. Ten milliliters of this 3000 ppm solution was diluted to 250 ppm with distilled water. The chemical was applied at the rate of 10 pounds/acre (11.2 kg/ha) by drenchings 46 mL of the 250 ppm solution on the surface of soil in 4½ inch (11.25 cm) plastic pots wherein seeds of the following weeds had been planted: velvetleaf (Abutilon theophrasti Medik.) (VL), To illustrate the effectiveness of the described substituted oxadiazines as postemergence herbicides, the 3000 ppm solution described under Example 5 was atomized with a conventional DeVilbiss™ sprayer, wetting the foliage to the drip point. The weeds, which were the same species as described in Example 5, were treated six days after emergence. The percent weed control was evaluated two weeks after treatment.

[5] = tested on: prickly sida (Sida spinosa L.) (PS); assay: Preemergence herbicide test, soil drench, prickly sida; conditions: Sida spinosa, 336 h, 10 lbs/A (11.2 kg/ha) soil drench, two weeks after treatment, vs untreated checks, read-out: Percent Weed Control PS
[6] = tested on: barnyardgrass (Echinochloa crus-galli (L.) Beauv.) (BG); assay: Postemergence herbicide test, foliar spray, barnyardgrass; conditions: 3000 ppm foliar spray to drip point, treated six days after emergence, two weeks after treatment
Experimental: as §1, with “barnyardgrass (Echinochloa crus-galli (L.) Beauv.) (BG), and” for “velvetleaf (Abutilon theophrasti Medik.) (VL),”

## Fc1ccc(C2=NC(C(F)(F)F)(C(F)(F)F)N=C(C(F)(F)C(F)(F)F)O2)cc1Cl [Compound 20, 2-(3-chloro-4-fluorophenyl)-6-(pentafluoroethyl)-4,4-bis(trifluoromethyl)-4H-1,3,5-oxadiazine]
[1]
  pest or weed control at 11208.5 g/ha: 100%
[2]
  pest or weed control at 11208.5 g/ha: 100%
[3]
  Percent Weed Control GF: 0%
[4]
  Percent Weed Control VL: 70%
[5]
  pest or weed control at 11208.5 g/ha: 100%
[6]
  Percent Weed Control BG: 30%

## FC(F)(F)C(F)(F)C1=NC(C(F)(F)F)(C(F)(F)F)N=C(c2cccc(Cl)c2)O1 [Compound 13, 2-(3-chlorophenyl)-6-(pentafluoroethyl)-4,4-bis(trifluoromethyl)-4H-1,3,5-oxadiazine]
[1]
  pest or weed control at 11208.5 g/ha: 100%
[2]
  pest or weed control at 11208.5 g/ha: 100%
[3]
  Percent Weed Control GF: 100%
[4]
  Percent Weed Control VL: 100%
[5]
  pest or weed control at 11208.5 g/ha: 100%
[6]
  Percent Weed Control BG: 80%

## FC(F)(F)C1=NC(C(F)(F)F)(C(F)(F)F)N=C(c2cccc(Cl)c2)O1 [Compound 4, 2-(3-chlorophenyl)-4,4,6-tris(trifluoromethyl)-4H-1,3,5-oxadiazine]
[1]
  pest or weed control at 11208.5 g/ha: 100%
[2]
  pest or weed control at 11208.5 g/ha: 100%
[3]
  Percent Weed Control GF: 100%
[4]
  Percent Weed Control VL: 50%
[5]
  pest or weed control at 11208.5 g/ha: 100%
[6]
  Percent Weed Control BG: 100%

## FC(F)(F)C(F)(F)C1=NC(C(F)(F)F)(C(F)(F)F)N=C(c2ccc(Br)cc2)O1 [Compound 25, 2-(4-bromophenyl)-6-(pentafluoroethyl)-4,4-bis(trifluoromethyl)-4H-1,3,5-oxadiazine]
[1]
  pest or weed control at 11208.5 g/ha: 90%
[2]
  pest or weed control at 11208.5 g/ha: 100%
[3]
  Percent Weed Control GF: 30%
[4]
  Percent Weed Control VL: 100%
[5]
  pest or weed control at 11208.5 g/ha: 100%
[6]
  Percent Weed Control BG: 50%

## FC(F)(F)C(F)(F)C1=NC(C(F)(F)F)(C(F)(F)F)N=C(c2ccc(Cl)cc2)O1 [Compound 24, 2-(4-chlorophenyl)-6-(pentafluoroethyl)-4,4-bis(trifluoromethyl)-4H-1,3,5-oxadiazine]
[1]
  pest or weed control at 11208.5 g/ha: 90%
[2]
  pest or weed control at 11208.5 g/ha: 100%
[3]
  Percent Weed Control GF: 0%
[4]
  Percent Weed Control VL: 50%
[5]
  pest or weed control at 11208.5 g/ha: 100%
[6]
  Percent Weed Control BG: 20%
